Experimental data from patent US4020160A, “Cyclodextrin sulfate salts as complement inhibitors” (American Cyanamid Company, priority 1975, dated 1977).
Several values for one entry are separate records, joined by “and”; a condition that tells them apart may be missing. Identical values can stand only once. Counter-ions that a name gives are not always drawn.

Legend:
complement system = details: reported in literature; cited from earlier work
[1] = reported in literature; cited from earlier work
activated human C1 = molecular target: T1, activated human C1 (Homo sapiens, UniProt P09871); test: Test, Code 026 (C1 inhibitor); assay type: biochemical; details: higher well number indicates higher activity, serial dilutions two-fold
T1 sequence (P09871 16-437 limits assumed): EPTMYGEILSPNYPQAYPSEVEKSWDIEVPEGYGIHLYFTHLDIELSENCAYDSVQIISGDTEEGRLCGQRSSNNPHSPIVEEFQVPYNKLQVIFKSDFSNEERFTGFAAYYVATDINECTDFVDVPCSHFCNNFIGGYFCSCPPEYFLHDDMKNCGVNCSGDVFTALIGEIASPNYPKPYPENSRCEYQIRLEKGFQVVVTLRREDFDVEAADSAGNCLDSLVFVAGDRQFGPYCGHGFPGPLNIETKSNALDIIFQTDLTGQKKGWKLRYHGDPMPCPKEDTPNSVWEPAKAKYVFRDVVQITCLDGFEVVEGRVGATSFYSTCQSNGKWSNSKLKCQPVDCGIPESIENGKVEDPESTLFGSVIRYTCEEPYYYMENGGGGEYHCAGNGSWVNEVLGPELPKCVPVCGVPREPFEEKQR
T1 sequence (P09871 438-688 limits assumed): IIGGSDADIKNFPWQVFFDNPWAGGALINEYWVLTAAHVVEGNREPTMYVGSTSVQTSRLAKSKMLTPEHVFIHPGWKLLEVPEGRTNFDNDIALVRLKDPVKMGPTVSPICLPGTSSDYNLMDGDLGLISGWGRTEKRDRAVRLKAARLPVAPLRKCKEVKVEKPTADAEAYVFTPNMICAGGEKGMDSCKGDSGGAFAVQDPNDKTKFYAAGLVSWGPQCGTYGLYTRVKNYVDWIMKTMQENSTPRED
Description: (§1) This test measures the ability of activated human C1 to destroy fluid phase human C2 in the presence of C4 and appropriate dilutions of the test compound. An active inhibitor protects C2 from C1 and C4; (ii) Test, Code 035 (C3-C9 inhibitor) -- This test determines the ability of the late components of human complement (C3-C9) to lyse EAC 142 in the presence of appropriate dilutions of the test compound. An active inhibitor protects EAC 142 from lysis by human C3-C9; (iii) Test, Code 036 (C-Shunt inhibitor)-In this test human erythrocytes rendered fragile are lysed in autologous serum via the shunt pathway activated by cobra venom factor in the presence of appropriate dilutions of the test compound. Inhibition of the shunt pathway results in failure of lysis; (iv) Forssman Vasculitis Test -- Here, the well known complement dependent lesion, Forssman vasculitis, is produced in guinea pigs by intradermal injection of rabbit anti-Forssman antiserum. The lesion is measured in terms of diameter, edema and hemorrhage and the extent to which a combined index of these is inhibited by prior intraperitoneal injection of the test compound at 200 mg/kg is then reported, unless otherwise stated; (v) Forssman Shock Test -- Lethal shock is produced in guinea pigs by an i.v. injection of anti-Forssman antiserum and the harmonic mean death time of treated guinea pigs is compared with that of simultaneous controls; (vi) Complement Level Reduction Test -- In this test, the above dosed guinea pigs, or others, are bled for serum and the complement level is determined in undiluted serum by the capillary tube method of U.S. Pat. No. 3,876,376 and compared to undosed control guinea pigs; and (vii) Cap 50 Test -- Here, appropriate amounts of the test compound are added to a pool of guinea pig serum in vitro, after which the undiluted serum capillary tube assay referred to above is run. The concentration of compound inhibiting 50% is reported.

[2] = test system: late components of human complement (C3-C9); test: Test, Code 035 (C3-C9 inhibitor), lysis of EAC 142; assay type: biochemical; details: higher well number indicates higher activity; serial dilutions two-fold
Description: as §1

[3] = test system: shunt pathway activated by cobra venom factor; assay type: cell-based, human; details: higher well number indicates higher activity; serial dilutions two-fold
Description: as §1

whole complement = test: Complement Level Reduction Test (serum of dosed guinea pigs, capillary tube assay); assay type: in vivo, guinea pig
[4] = test system: lethal shock by i.v. anti-Forssman antiserum; test: Forssman Shock Test; assay type: in vivo; details: guinea pig, at 200 mg/kg; Control=3.15 min
Method: as §1, with “An active inhibitor protects EAC 142 from lysis by human C3-C9; (iii) Test, Code 036 (C-Shunt inhibitor)-In this test human erythrocytes rendered fragile are lysed in autologous serum via the shunt pathway activated by cobra venom factor in the presence of appropriate dilutions of the test compound. Inhibition of the shunt pathway results in failure of lysis; (iv) Forssman Vasculitis Test -- Here, the well known complement dependent lesion, Forssman vasculitis, is produced in guinea pigs by intradermal injection of rabbit anti-Forssman antiserum.” left out, “The concentration of compound inhibiting 50% is reported.” left out

In the case of `Nc1ccc2cc(S(=O)(=O)O)cc(O)c2c1N=Nc1ccc(NC(=O)Nc2ccc(N=Nc3c(N)ccc4cc(S(=O)(=O)O)cc(O)c34)c(S(=O)(=O)O)c2)cc1S(=O)(=O)O` [chlorazol fast pink, 3,3'-ureylenebis-[6-(2-amino-8-hydroxy-6-sulfo-1-naphthylazo)]benzenesulfonic acid tetrasodium salt], the anticomplementary effect (complement system) is listed as “anticomplementary effect”.

In the case of `NCCCCCC(=O)O` [epsilon-aminocaproic acid], the “treatment of hereditary angioneurotic edema” value [1] is listed as “used with success”.

For `NC[C@H]1CC[C@H](C(=O)O)CC1` [tranexamic acid], the “treatment of hereditary angioneurotic edema” value [1] is listed as “used with success”.

For heparin, the anticomplementary effect (complement system) is listed as “anticomplementary effect”.

With “α-Cyclodextrin polysulfate triethylammonium salt” the “026 (C1 inhibitor) activity, wells of a two-fold serial dilution assay” value (activated human C1) was 11 wells, the “035 (C3-C9 inhibitor) activity, wells of a two-fold serial dilution assay” value [2] was “Neg” and the “036 (C-Shunt inhibitor) activity, wells of a two-fold serial dilution assay” value [3] was 3 wells and 5 wells.

With α-cyclodextrin polysulfate sodium salt the “026 (C1 inhibitor) activity, wells of a two-fold serial dilution assay” value (activated human C1) was 14 wells, the “035 (C3-C9 inhibitor) activity, wells of a two-fold serial dilution assay” value [2] was “Neg” and the “036 (C-Shunt inhibitor) activity, wells of a two-fold serial dilution assay” value [3] was 6 wells. The “In vivo Activity (Guinea Pig) % Inhibition” value (whole complement; 100 mg/kg i.v., time 2') was 75%, the “In vivo Activity (Guinea Pig) % Inhibition” value (whole complement; 100 mg/kg i.v., time 30') was 56% and the “In vivo Activity (Guinea Pig) % Inhibition” value (whole complement; 100 mg/kg i.v., time 120') was 39%. For the same compound, the “In vivo Activity (Guinea Pig) % Inhibition” value (whole complement; 200 mg/kg i.p., time 30') was 71%, the “In vivo Activity (Guinea Pig) % Inhibition” value (whole complement; 200 mg/kg i.p., time 60') was 28% and the “In vivo Activity (Guinea Pig) % Inhibition” value (whole complement; 200 mg/kg i.p., time 120') was 72%. The “Forsmann Shock, harmonic mean death time” value [4] was 31.1 min.

For “β-Cyclodextrin polysulfate potassium salt”, the “026 (C1 inhibitor) activity, wells of a two-fold serial dilution assay” value (activated human C1) was 10 wells, the “035 (C3-C9 inhibitor) activity, wells of a two-fold serial dilution assay” value [2] was “Neg” and the “036 (C-Shunt inhibitor) activity, wells of a two-fold serial dilution assay” value [3] was 6 wells.

For β-Cyclodextrin polysulfate sodium salt, the “026 (C1 inhibitor) activity, wells of a two-fold serial dilution assay” value (activated human C1; sodium salt) was 12 wells and 11 wells and 10 wells, the “In vivo Activity (Guinea Pig) % Inhibition” value (whole complement; 100 mg/kg i.v., time 2') was 75% and the “In vivo Activity (Guinea Pig) % Inhibition” value (whole complement; 100 mg/kg i.v., time 30') was 45%. For the same compound, the “In vivo Activity (Guinea Pig) % Inhibition” value (whole complement; 100 mg/kg i.v., time 120') was 27%, the “In vivo Activity (Guinea Pig) % Inhibition” value (whole complement; 200 mg/kg i.p., time 30') was 49% and the “In vivo Activity (Guinea Pig) % Inhibition” value (whole complement; 200 mg/kg i.p., time 60') was 29%. The “In vivo Activity (Guinea Pig) % Inhibition” value (whole complement; 200 mg/kg i.p., time 120') was 67% and the “Forsmann Shock, harmonic mean death time” value [4] was over 90 min.

For “β-Cyclodextrin polysulfate triethylammonium salt”, the “026 (C1 inhibitor) activity, wells of a two-fold serial dilution assay” value (activated human C1) was 10 wells, the “035 (C3-C9 inhibitor) activity, wells of a two-fold serial dilution assay” value [2] was “Neg” and the “036 (C-Shunt inhibitor) activity, wells of a two-fold serial dilution assay” value [3] was 4 wells and 6 wells.
